Data set [1] is described as follows: (§1) Oral bioavailability in Sprague-Dawley rat at 10 mg/kg by LC-MS/MS analysis. The conditions noted are these: Sprague-Dawley, in vivo. Type of data set: ADME, organism-based.
The nature of data set [2]: (§2) AUC in Sprague-Dawley rat at 10 mg/kg, po by LC-MS/MS analysis. Type of data set: ADME, organism-based. The conditions noted are these: Sprague-Dawley, in vivo.
The nature of data set [3]: Cmax in Sprague-Dawley rat at 10 mg/kg, po by LC-MS/MS analysis. Type of data set: ADME, organism-based. On the set-up: dose 10 mg/kg, route oral. The conditions noted are these: in vivo.
The nature of data set [4]: Volume of distribution at steady state in Sprague-Dawley rat at 5 mg/kg, iv by LC-MS/MS analysis. In kind it is ADME, organism-based. The conditions noted are these: in vivo, read-out: Vdss.
Data set [5] can be described thus: Clearance in Sprague-Dawley rat at 5 mg/kg, iv by LC-MS/MS analysis. The conditions noted are these: in vivo. In kind it is ADME, organism-based.
Data set [6] in a line: Terminal eliminational half life in Sprague-Dawley rat at 5 mg/kg, iv by LC-MS/MS analysis. In kind it is ADME, organism-based. The conditions noted are these: Sprague-Dawley, in vivo, read-out: beta t1/2 (converted).
The target of data set [7] is Poly [ADP-ribose] polymerase 1 (Homo sapiens, UniProt P09874). Put plainly: Inhibition of human PARP1 using [3H]NAD as substrate after 1 min by microplate scintillation counting analysis.
In another data set the target is PARP 1, 2 and 3 (Homo sapiens, UniProt P09874+Q9Y6F1+Q9UGN5). The experiment in a line: Inhibition of PARP in human LoVo cells assessed as inhibition of poly(ADP)-ribose polymerization for 30 mins by fluorescence assay. In kind it is cell-based.
The nature of data set [8]: Cytotoxicity against BRCA2-deficient human Capan1 cells. In kind it is functional, cell-based, CAPAN-1.
Another data set concerns LoVo. The experiment in a line: cells. The conditions noted are these: Homo sapiens, 120 h.
Data set [9] is described as follows: Cmax in beagle dog at 0.01 mg/kg, po. In kind it is ADME, organism-based, Canis lupus familiaris. On the set-up: dose 0.01 mg/kg, route oral. The conditions noted are these: in vivo.
The subject of data set [10] is Canis familiaris. The experiment in a line: AUC(0 to infinity) in beagle dog at 0.01 mg/kg, po. In kind it is ADME, organism-based, Canis lupus familiaris. On the set-up: dose 0.01 mg/kg, time infinity, route oral. The conditions noted are these: in vivo.
Data set [11] is described as follows: AUC(0 to time) in beagle dog at 0.01 mg/kg, po. Type of data set: ADME, organism-based, Canis lupus familiaris. The conditions noted are these: in vivo.
The nature of data set [12]: Volume of distribution at steady state in beagle dog at 0.025 mg/kg, iv. Type of data set: ADME, organism-based, Canis lupus familiaris. The conditions noted are these: in vivo, read-out: Vdss.
The test system of data set [13] is Canis familiaris. The experiment in a line: Clast in beagle dog at 0.025 mg/kg, iv. Type of data set: ADME, organism-based, Canis lupus familiaris. The conditions noted are these: in vivo.
A short description of data set [14]: Half life in beagle dog at 0.025 mg/kg, iv. In kind it is ADME, organism-based, Canis lupus familiaris. The conditions noted are these: in vivo.
The nature of data set [15]: Cmax in beagle dog at 0.025 mg/kg, iv. Type of data set: ADME, organism-based, Canis lupus familiaris. On the set-up: dose 0.025 mg/kg, route intravenous. The conditions noted are these: in vivo.
The subject of data set [16] is Canis familiaris. The experiment in a line: AUC(0 to infinity) in beagle dog at 0.025 mg/kg, iv. Type of data set: ADME, organism-based, Canis lupus familiaris. On the set-up: dose 0.025 mg/kg, time infinity, route intravenous. The conditions noted are these: in vivo.
The nature of data set [17]: AUC(0 to t) in beagle dog at 0.025 mg/kg, iv. Type of data set: ADME, organism-based, Canis lupus familiaris. The conditions noted are these: in vivo.
The nature of data set [18]: Tmax in beagle dog at 0.01 mg/kg, po. In kind it is ADME, organism-based, Canis lupus familiaris. The conditions noted are these: in vivo.
Data set [19] is described as follows: Half life in beagle dog at 0.01 mg/kg, po. In kind it is ADME, organism-based, Canis lupus familiaris. The conditions noted are these: in vivo.
Data set [20] relates to Canis familiaris. Put plainly: Clast in beagle dog at 0.01 mg/kg, po. The conditions noted are these: in vivo. Type of data set: ADME, organism-based, Canis lupus familiaris.
Data set [21] in a line: Apparent oral volume of distribution in beagle dog at 0.01 mg/kg, po. Type of data set: ADME, organism-based, Canis lupus familiaris. The conditions noted are these: in vivo.
In data set [22] the test system is Canis familiaris. Put plainly: Absolute oral bioavailability in beagle dog at 0.01 mg/kg. In kind it is ADME, organism-based, Canis lupus familiaris. The conditions noted are these: in vivo.
Data set [23] can be described thus: Clearance in beagle dog at 0.025 mg/kg, iv. In kind it is ADME, organism-based, Canis lupus familiaris. The conditions noted are these: in vivo.
Another data set has as its system MRC5. The experiment in a line: Cytotoxicity against human MRC5 cells. Type of data set: cell-based.
The nature of data set [24]: Half life in rat liver microsomes. Type of data set: ADME.
Data set [25] has as its system Rattus norvegicus. Described as §1. In kind it is ADME, organism-based. The conditions noted are these: in vivo.
The test system of data set [26] is Rattus norvegicus. The description is as §2. Type of data set: ADME, organism-based. The conditions noted are these: in vivo.

Experimental findings from ChEMBL document CHEMBL3763037 (J Med Chem, 2016) are described below.

Sequence of Poly [ADP-ribose] polymerase 1 (P09874 whole entry): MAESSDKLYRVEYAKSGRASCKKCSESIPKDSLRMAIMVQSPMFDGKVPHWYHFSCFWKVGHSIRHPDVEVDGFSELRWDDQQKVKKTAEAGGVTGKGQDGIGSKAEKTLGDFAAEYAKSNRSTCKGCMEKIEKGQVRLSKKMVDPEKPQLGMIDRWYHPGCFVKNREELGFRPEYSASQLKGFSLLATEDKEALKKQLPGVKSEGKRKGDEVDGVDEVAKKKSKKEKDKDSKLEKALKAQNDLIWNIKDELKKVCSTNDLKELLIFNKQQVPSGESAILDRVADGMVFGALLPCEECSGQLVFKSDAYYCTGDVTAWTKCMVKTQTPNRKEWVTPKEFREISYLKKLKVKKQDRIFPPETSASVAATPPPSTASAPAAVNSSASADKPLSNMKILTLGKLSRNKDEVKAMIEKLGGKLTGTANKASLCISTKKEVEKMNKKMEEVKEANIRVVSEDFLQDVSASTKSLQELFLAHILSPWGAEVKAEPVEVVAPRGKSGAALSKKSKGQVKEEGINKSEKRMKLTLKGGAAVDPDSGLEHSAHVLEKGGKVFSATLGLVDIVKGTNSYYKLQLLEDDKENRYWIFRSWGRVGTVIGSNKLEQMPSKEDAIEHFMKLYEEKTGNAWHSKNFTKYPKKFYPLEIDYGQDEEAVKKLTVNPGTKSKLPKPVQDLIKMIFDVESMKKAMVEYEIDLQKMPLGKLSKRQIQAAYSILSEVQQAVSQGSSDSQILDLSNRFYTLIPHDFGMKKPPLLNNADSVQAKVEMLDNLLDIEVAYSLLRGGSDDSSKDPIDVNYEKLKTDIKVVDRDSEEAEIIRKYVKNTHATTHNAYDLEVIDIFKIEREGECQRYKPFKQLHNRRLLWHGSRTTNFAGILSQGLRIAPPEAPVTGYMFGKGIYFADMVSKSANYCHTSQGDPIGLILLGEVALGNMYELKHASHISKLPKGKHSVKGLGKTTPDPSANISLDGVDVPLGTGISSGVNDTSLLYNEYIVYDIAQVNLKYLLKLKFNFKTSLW

As usually defined, the bioavailability is dose-corrected exposure relative to a reference, in per cent. Read a high bioavailability as much systemic uptake. The term AUC denotes the area under the concentration-time curve, a measure of exposure. By Cmax is commonly meant the highest concentration seen after dosing. Broadly, the clearance is the rate of elimination divided by the concentration. A low value points to inefficient removal. By IC50 is commonly meant the point on the concentration scale where inhibition reaches its midpoint. A high value points to weaker potency. The EC50 is the concentration at which the effect is half-maximal. For orientation: GI50 means the concentration at which growth is held to half of that of the control. With `O=c1[nH]nc2c3c(cccc13)N[C@H](c1ccc(CN3CCC3)cc1)[C@H]2c1ccc(F)cc1`, in [1], the bioavailability was found to be 14%. The AUC in data set [2] came out at 914 ng·h/mL. In [3], this compound had a Cmax of 126 ng/mL. Also, the Vd in data set [4] turned out to be 4.5 L/kg. The compound also gave a clearance in data set [5] of 26 mL/min/kg. The half-life in [6] was 2.29 h. This compound also displayed an IC50 in data set [7] of 1.1 nM. Moreover, the EC50 was 6.3 nM on PARP 1, 2 and 3; 389 nM in data set [8] (Homo sapiens, CAPAN-1). The compound also gave a GI50 with LoVo of 279 nM.

One may read the AUC(0-t) as exposure summed from dosing to a finite time, without extrapolation to infinity. As usually defined, the Tmax is the time at which the peak concentration occurs. A word on the Vd/F: it is the volume of distribution divided by bioavailability. Regarding `Cc1ccc(S(=O)(=O)O)cc1.Cn1ncnc1[C@H]1c2n[nH]c(=O)c3cc(F)cc(c23)N[C@@H]1c1ccc(F)cc1` [TALAZOPARIB TOSYLATE], the Cmax in data set [9] amounted to 68 ng/mL; in data set [15] it was 18.9 ng/mL. The values for the AUC (in the data set on Canis familiaris [10]; in [11]; in the data set on Canis familiaris [16]) were 611 ng·h/mL, 600 ng·h/mL and 135 ng·h/mL, respectively. In addition, the Vd in data set [12] turned out to be 4.67 L/kg. Moreover, the Clast in the data set with Canis familiaris [13] was 0.182 ng/mL; in the data set with Canis familiaris [20] it was 0.313 ng/mL. For the same compound, the half-life in [14] was 26.7 h; in [19] it was 24.4 h. Further, the AUC(0-t) in data set [17] came to 129 ng·h/mL. Besides, the time to peak (Tmax) in data set [18] came to 4 h. Moreover, the Vd/F in [21] worked out at 5.81 L/kg. In the data set on Canis familiaris [22], this compound returned an F of 118.7%. The compound further showed a clearance in data set [23] of 3.3 mL/min/kg.

For the compound `CNCc1ccc(-c2[nH]c3cc(F)cc4c3c2CCNC4=O)cc1` [RUCAPARIB], the EC50 in the data set on MRC5 (Homo sapiens, MRC5) is 8530 nM. In addition, in the data set with LoVo, the GI50 is 144 nM.

Turning to `C[C@]1(c2nc3c(C(N)=O)cccc3[nH]2)CCCN1` [VELIPARIB], the 50% effective concentration (EC50) (in data set [8] (capan-1); with MRC5 (mrc5)) was above 10000 nM each time. In the data set with LoVo, halving of growth (GI50) required 6200 nM.

`CN(C)Cc1ccc(C2Nc3cc(F)cc4c(=O)[nH]nc(c34)C2c2ccccc2)cc1` (centres undefined) returned a 50% inhibitory concentration (IC50) in [7] of 3.29 nM. The EC50 was found to be 8.48 nM at PARP 1, 2 and 3; 146 nM in data set [8] (Homo sapiens, CAPAN-1). This compound also yielded a half-life in [24] of 5 min. For the same compound, growth in the data set with LoVo was halved (GI50) at 46000 nM.

As for `Cn1ccnc1[C@H]1c2n[nH]c(=O)c3cc(F)cc(c23)N[C@@H]1c1ccc(F)cc1`, in the data set with Rattus norvegicus [25], the F stood at 68%. In the data set on Rattus norvegicus [26], this compound yielded an AUC of 1810 ng·h/mL. The peak level in data set [3] (Cmax) was 3990 ng/mL. Moreover, the Vd in data set [4] stood at 0.73 L/kg. Moreover, the half-life in [6] was 2.1 h. This compound also registered an IC50 in data set [7] of 1.6 nM. For the same compound, the concentration giving a half-maximal response (EC50) on PARP 1, 2 and 3 came to 17.9 nM; in data set [8] (Homo sapiens, CAPAN-1) it was 39 nM. For the same compound, in the data set with LoVo, the GI50 came to 25 nM.
